Measured values reported in patent US20060234909A1, “Compositions and methods for increasing drug efficiency” (priority 2003, published 2006).
Like-named read-outs stand apart in the source and are kept apart here. Ends that are not written are not given here.

Assays:
[1] = Serum stability in RPMI1640 medium containing 10% fetal bovine serum; type: in vitro ADME; details: for remaining at 4 h, 10 μM / remaining at 8 h, 10 μM / remaining at 24 h, 10 μM / remaining at 72 h, 10 μM / half-life at 10 μM: bovine; for remaining at 4 h, 10 μM: read-out: Relative Percent Remaining at 4 hr; for remaining at 8 h, 10 μM: read-out: Relative Percent Remaining at 8 hr; for remaining at 24 h, 10 μM: read-out: Relative Percent Remaining at 24 hr; for remaining at 72 h, 10 μM: read-out: Relative Percent Remaining at 72 hr; for half-life at 10 μM: read-out: T½ (converted)
Experimental: The stability of conjugates was measured in RPMI1640 cell culture medium containing 10% fetal bovine serum. The serum-containing medium was pre-warmed at 37° C. for 3 min prior to addition of test articles. Test articles, prepared in DMSO as 5 mM stocks, were added to the cell culture media to a final concentration of 10 μM. Aliquots ([…]) were withdrawn in triplicate at 0, 4, 8, 24 and 72 hours and combined with the same volume of ice-cold acetonitrile to terminate the reaction. The mixture was centrifuged at 2,000×g for 10 minutes. One part of the supernatant was mixed with four parts of deionized water to bring down the percentage of organic solvent. The diluted samples were then assayed by LC/MS for the test article. The natural log of the percent remaining was plotted versus time. A linear fit was used to determine the rate constant. The fit was truncated after the percent of remaining test article was less than 10%. The elimination half-lives associated with the disappearance of test articles were determined to compare their relative stability. The assays were carried out by Absorption Systems (Exton, Pa.).

tubulin = test: Fluorescence-based tubulin polymerization assay (MPA; enhancement for paclitaxel, inhibition for vinblastine); type: biochemical
In short: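 Tubulin polymerisation was followed by fluorescence (ex 360/em 405 nm) with 1 mg/ml BSA in all assays. For paclitaxel conjugates, glycerol was omitted. Parent drugs and conjugates were tested at 0.75, 1.5, 3 and 10 micromolar final, and values come from the linear range of the dose responses.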

HT-29 cells [2] = test system: HT-29 cells
MCF-7 cells [3] = test system: MCF-7 cells
HUVEC = test: Cytotoxicity assay (monolayer), HUVEC; type: cell-based; details: ML (monolayer), read-out: HUVEC (EC50 Ave) ML
[4] = test system: tumor cells vs normal cells; test: Cytotoxic selectivity index (normal cells in monolayer vs tumor cells in soft agar)
[5] = test system: HT-29 colorectal carcinoma; test: Cytotoxicity assay (monolayer), HT-29; type: cell-based; details: HT29, ML (monolayer), read-out: HT29 (EC50 Ave) ML;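 also: monolayer cultures tested in triplicate, compound exposure for three days against DMSO vehicle controls, EC50 fitted from dose-response curves and averaged across all tests and lots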
[6] = test system: Normal human foreskin fibroblasts (HFF)
Human Src = target: T1, Human Src (Homo sapiens, UniProt P12931); test: Src kinase assay (PKLight ATP utilization, substrate phosphorylation as % of parent peptide); type: biochemical
T1 construct: purchased Upstate (Charlottesville, Va.) 14-326
T1 sequence (P12931 whole entry): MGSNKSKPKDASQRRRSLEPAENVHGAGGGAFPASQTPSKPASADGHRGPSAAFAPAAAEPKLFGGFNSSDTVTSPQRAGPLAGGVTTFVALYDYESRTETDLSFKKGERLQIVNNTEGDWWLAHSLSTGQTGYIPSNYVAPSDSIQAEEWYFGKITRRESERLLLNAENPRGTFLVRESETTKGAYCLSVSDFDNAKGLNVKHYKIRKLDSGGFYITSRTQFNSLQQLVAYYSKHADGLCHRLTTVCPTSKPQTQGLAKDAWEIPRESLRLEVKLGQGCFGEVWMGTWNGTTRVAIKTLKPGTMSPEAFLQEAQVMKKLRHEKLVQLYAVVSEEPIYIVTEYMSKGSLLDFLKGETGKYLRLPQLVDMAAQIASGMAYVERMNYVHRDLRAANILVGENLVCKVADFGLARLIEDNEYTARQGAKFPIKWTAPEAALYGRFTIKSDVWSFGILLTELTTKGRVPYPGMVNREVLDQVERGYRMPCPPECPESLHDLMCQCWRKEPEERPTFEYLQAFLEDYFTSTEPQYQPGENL
In short: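 Recombinant human Src or Akt phosphorylated peptide or drug–peptide conjugate substrates (25, 50, 100 μM) at 30° C for 2–5 hours, in Tris-HCl pH 7.5 buffer with MgCl2 and ATP. ATP use was read by luciferase luminescence against no-substrate and no-ATP controls. Phosphorylation was taken from the linear range and expressed as % of the parent peptide.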

MCF-7 breast carcinoma = test: Cytotoxicity assay (monolayer), MCF-7; type: cell-based; details: MCF7, ML (monolayer), read-out: MCF7 (EC50 Ave) ML;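 also: cells treated 72 h with 6-8 compound doses versus DMSO vehicle controls, EC50 fitted by 4-parameter dose-response curves, averaged across all tests and lots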
in vitro = details: human
[7] = test system: Normal human foreskin fibroblasts (HFF); test: cells; details: Fibroblast
HT-29 cells [8] = test: cells; details: Homo sapiens
MCF-7 cells [9] = test: cells; details: Homo sapiens
Met kinase = Met kinase (Homo sapiens, UniProt P08581); details: Hays and Watowich 2003; read-out: Km as substrate for Met kinase; cited from earlier work
Met kinase, sequence (P08581 25-1390): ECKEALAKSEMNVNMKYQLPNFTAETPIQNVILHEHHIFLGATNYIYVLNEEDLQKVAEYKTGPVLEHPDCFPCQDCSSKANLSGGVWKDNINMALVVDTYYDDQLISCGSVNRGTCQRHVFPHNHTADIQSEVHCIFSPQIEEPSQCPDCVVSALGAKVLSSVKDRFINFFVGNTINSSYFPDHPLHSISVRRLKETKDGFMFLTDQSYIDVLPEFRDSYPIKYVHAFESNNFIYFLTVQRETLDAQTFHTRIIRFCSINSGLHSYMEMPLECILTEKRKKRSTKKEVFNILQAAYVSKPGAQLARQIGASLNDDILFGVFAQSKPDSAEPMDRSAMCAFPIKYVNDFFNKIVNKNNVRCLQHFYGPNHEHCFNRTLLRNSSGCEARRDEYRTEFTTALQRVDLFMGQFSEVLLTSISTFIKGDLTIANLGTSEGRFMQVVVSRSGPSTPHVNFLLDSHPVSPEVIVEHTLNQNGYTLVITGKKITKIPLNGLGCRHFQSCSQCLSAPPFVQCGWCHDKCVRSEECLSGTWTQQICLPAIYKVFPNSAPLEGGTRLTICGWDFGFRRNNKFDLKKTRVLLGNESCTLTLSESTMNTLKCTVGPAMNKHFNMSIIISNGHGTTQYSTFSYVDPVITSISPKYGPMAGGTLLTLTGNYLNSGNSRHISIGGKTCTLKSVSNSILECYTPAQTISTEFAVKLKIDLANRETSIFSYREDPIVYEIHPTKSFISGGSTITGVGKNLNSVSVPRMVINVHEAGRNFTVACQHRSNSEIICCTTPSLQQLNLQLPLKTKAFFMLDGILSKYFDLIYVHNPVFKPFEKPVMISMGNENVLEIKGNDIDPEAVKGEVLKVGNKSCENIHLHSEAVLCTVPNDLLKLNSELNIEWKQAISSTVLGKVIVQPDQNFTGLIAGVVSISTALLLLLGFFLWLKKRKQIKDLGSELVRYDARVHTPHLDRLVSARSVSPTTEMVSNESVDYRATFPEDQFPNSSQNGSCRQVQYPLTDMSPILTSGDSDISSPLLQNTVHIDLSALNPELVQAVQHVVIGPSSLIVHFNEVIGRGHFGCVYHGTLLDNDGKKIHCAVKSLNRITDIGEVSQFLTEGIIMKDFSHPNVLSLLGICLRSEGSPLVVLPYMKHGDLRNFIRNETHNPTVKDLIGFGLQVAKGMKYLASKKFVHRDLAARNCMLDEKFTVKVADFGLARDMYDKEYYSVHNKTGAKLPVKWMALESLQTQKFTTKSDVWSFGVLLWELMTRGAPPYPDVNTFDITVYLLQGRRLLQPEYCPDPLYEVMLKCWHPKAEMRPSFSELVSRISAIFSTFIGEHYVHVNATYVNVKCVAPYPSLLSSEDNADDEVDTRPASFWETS

Tie-2 = Tie-2 (Homo sapiens, UniProt Q02763); details: Deng et al. 2001; read-out: Km as substrate for Tie-2; cited from earlier work
Tie-2, sequence (Q02763 23-1124, species assumed): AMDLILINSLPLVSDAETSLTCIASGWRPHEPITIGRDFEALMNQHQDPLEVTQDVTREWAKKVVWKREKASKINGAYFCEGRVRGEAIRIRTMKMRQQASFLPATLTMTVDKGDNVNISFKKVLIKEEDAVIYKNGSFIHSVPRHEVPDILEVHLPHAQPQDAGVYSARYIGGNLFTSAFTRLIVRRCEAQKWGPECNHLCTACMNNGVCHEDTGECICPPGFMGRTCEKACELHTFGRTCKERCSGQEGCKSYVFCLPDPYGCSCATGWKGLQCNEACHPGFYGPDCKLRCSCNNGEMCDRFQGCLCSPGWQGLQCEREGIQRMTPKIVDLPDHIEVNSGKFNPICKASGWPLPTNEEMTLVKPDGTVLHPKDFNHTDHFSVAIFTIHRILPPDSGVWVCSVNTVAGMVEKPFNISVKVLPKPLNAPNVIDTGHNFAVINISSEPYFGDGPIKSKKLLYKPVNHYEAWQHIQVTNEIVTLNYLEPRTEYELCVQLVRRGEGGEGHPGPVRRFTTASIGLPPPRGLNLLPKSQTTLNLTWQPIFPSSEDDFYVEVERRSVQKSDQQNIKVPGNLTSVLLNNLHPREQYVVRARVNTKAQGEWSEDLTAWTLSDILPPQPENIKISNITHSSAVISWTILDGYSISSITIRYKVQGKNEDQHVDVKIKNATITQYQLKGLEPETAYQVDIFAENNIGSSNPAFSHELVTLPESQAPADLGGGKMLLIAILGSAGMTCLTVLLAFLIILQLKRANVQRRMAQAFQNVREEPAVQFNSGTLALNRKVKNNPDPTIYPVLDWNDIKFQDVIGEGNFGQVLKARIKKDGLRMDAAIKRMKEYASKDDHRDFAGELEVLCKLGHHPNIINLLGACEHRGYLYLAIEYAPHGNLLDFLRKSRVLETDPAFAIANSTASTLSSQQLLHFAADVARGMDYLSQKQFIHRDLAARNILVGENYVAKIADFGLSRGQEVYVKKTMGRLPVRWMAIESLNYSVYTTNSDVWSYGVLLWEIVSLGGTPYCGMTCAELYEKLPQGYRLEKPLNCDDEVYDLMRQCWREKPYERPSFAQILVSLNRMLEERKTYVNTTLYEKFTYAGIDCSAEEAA

Akt = Akt (Homo sapiens, UniProt P31749); details: Akt peptide substrates, Alessi et al. 1996; cited from earlier work
Akt, sequence (P31749 whole entry): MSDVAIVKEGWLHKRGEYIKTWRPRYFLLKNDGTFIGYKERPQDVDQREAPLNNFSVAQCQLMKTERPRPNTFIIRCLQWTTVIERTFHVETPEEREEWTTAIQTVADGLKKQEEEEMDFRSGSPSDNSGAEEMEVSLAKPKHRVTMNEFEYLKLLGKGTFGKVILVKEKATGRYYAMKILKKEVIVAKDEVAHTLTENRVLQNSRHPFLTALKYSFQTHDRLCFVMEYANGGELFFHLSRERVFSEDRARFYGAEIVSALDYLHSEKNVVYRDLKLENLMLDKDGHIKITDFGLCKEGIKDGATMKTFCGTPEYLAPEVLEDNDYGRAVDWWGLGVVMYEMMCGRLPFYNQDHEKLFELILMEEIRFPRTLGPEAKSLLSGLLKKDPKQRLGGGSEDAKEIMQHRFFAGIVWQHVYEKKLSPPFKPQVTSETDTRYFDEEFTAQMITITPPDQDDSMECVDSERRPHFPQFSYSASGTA

[10] = read-out: HT29 (EC50 Ave) SA, HT29, SA (soft agar)
[11] = read-out: MCF7 (EC50 Ave) SA, MCF7, SA (soft agar)
[12] = read-out: HFF (EC50 Ave) ML, HFF, ML (monolayer)
[13] = read-out: HT-29 Soft Agar EC50, HT-29 tumor cells, soft agar, 10-14 days, mean ± SD
[14] = read-out: MCF-7 Soft Agar EC50, MCF-7 tumor cells, soft agar, 10-14 days, mean ± SD
[15] = read-out: HFFMonolayer EC50, HFF normal cells, monolayer, 72 hours, mean ± SD
[16] = HT-29, read-out: HT29 (EC50 Ave) SA
[17] = MCF7, read-out: MCF7 (EC50 Ave) SA

Compound | Relative Percent Remaining at 0 hr [1] [%] | remaining at 4 h, 10 μM [1] [%] | remaining at 8 h, 10 μM [1] [%] | remaining at 24 h, 10 μM [1] [%] | remaining at 72 h, 10 μM [1] [%] | half-life at 10 μM [1] [h] | Ave. MPA Act. (tubulin) | EC50 (HT-29 cells [2]; [10]) [nM] | EC50 (MCF-7 cells [3]; [11]) [nM] | EC50 (HUVEC) [nM] | Cytotoxic Selectivity Index HFF/HT29 [4] | EC50 [5] [nM] | EC50 [6, 12] [nM] | EC50 (MCF-7 breast carcinoma) [nM] | other results
CC[C@H](C)[C@H](NC(=O)[C@H](Cc1ccc(O)cc1)NC(=O)[C@H](CCC(=O)O)NC(C)=O)C(=O)N[C@@H](Cc1ccc(O)cc1)C(=O)NCC(=O)N[C@@H](CO)C(=O)N[C@@H](Cc1ccccc1)C(=O)N[C@@H](CCCCN)C(=O)NCCCOCCOCCOCCCNC(=O)O[C@H]1C(=O)[C@@]2(C)[C@H]([C@H](OC(=O)c3ccccc3)[C@]3(O)C[C@H](OC(=O)[C@H](O)[C@@H](NC(=O)c4ccccc4)c4ccccc4)C(C)=C1C3(C)C)[C@]1(OC(C)=O)CO[C@@H]1C[C@@H]2O | 100 | 95 | 99 | 69 | 22 | 32 | B (B=50-80) | > 100 | > 100 | > 100 | 20.5 | > 100 | > 100 | > 100 | Average src kinase activity (Human Src): C (C>40); selectivity ratio (in vitro): 24.1
CC[C@H](C)[C@H](NC(=O)[C@H](Cc1ccc(O)cc1)NC(=O)OCc1ccccc1)C(=O)N[C@@H](Cc1ccc(O)cc1)C(=O)NCC(=O)N[C@@H](CO)C(=O)N[C@@H](Cc1ccccc1)C(=O)N[C@@H](CCCCN)C(=O)NCCOCCOCCOCCNC(=O)[C@@]1(O)[C@H](O)[C@]2(CC)C=CCN3CC[C@@]4(c5cc([C@@]6(C(=O)OC)C[C@@H]7CN(CCc8c6[nH]c6ccccc86)C[C@](O)(CC)C7)c(OC)cc5N(C)[C@@H]14)[C@@H]32 [CBz-YIYGSFK-PEG(11)-3Am-VBL] | 100 | 88 | 102 | 100 | 61 | > 72 | – | > 100 | > 100 | > 100 | 1.4 | > 100 | > 100 | > 100 | EC50 (HT-29 cells [2]; [13]): 464 ± 351 nM; EC50 (MCF-7 cells [3]; [14]): 156 ± 37 nM; Cytotoxic Selectivity Index HFF/MCF7 [4]: 4.2; EC50 [6, 15]: 655 ± 186 nM
CC(=O)O[C@H]1C(=O)[C@@]2(C)[C@H]([C@H](OC(=O)c3ccccc3)[C@]3(O)C[C@H](OC(=O)[C@H](O)[C@@H](NC(=O)c4ccccc4)c4ccccc4)C(C)=C1C3(C)C)[C@]1(OC(C)=O)CO[C@@H]1C[C@@H]2O [Paclitaxel (PXL)] | – | – | – | – | – | – | C (C>80) | – | – | – | – | – | – | – | EC50 ([7]; read-out: HFF (EC50 Ave) ML): < 20 nM; EC50 (HT-29 cells [8]; [16]): < 20 nM; EC50 (HUVEC; Homo sapiens): < 20 nM; EC50 ([5]; Homo sapiens, HT-29): < 20 nM; EC50 (MCF-7 breast carcinoma; Homo sapiens): < 20 nM; EC50 (MCF-7 cells [9]; [17]): < 20 nM
CC[C@H](C)[C@H](NC(=O)[C@H](Cc1ccc(O)cc1)NC(=O)C(C)(C)C)C(=O)N[C@@H](Cc1ccc(O)cc1)C(=O)NCC(=O)N[C@@H](CO)C(=O)N[C@@H](Cc1ccccc1)C(=O)N[C@@H](CCCNC(=N)N)C(=O)NCCCOCCOCCOCCCNC(=O)O[C@H]1C(=O)[C@@]2(C)[C@H]([C@H](OC(=O)c3ccccc3)[C@]3(O)C[C@H](OC(=O)[C@H](O)[C@@H](NC(=O)c4ccccc4)c4ccccc4)C(C)=C1C3(C)C)[C@]1(OC(C)=O)CO[C@@H]1C[C@@H]2O [Pv-YIYGSFR-PEG(13)-10Ca-PXL] | 100 | 73 | 63 | 63 | 64 | > 72 | B (B=50-80) | > 100 | 20 to 100 | > 100 | 12.3 | > 100 | > 100 | > 100 | EC50 (HT-29 cells [2]; [13]): 175 ± 43 nM; EC50 (MCF-7 cells [3]; [14]): 80 ± 13 nM; Cytotoxic Selectivity Index HFF/MCF7 [4]: 26.6; EC50 [6, 15]: 2140 nM
CC[C@]1(O)C[C@@H]2CN(CCc3c([nH]c4ccccc34)[C@@](C(=O)OC)(c3cc4c(cc3OC)N(C)[C@H]3[C@@](O)(C(=O)OC)[C@H](OC(C)=O)[C@]5(CC)C=CCN6CC[C@]43[C@@H]65)C2)C1 [Vinblastine (VBL)] | – | – | – | – | – | – | C (C>80) | – | – | – | – | – | – | – | EC50 ([7]; read-out: HFF (EC50 Ave) ML): < 20 nM; EC50 (HT-29 cells [8]; [16]): < 20 nM; EC50 (HUVEC; Homo sapiens): < 20 nM; EC50 ([5]; Homo sapiens, HT-29): < 20 nM; EC50 (MCF-7 breast carcinoma; Homo sapiens): < 20 nM; EC50 (MCF-7 cells [9]; [17]): < 20 nM
CC[C@]1(O)C[C@@H]2CN(CCc3c([nH]c4ccccc34)[C@@](C(=O)OC)(c3cc4c(cc3OC)N(C)[C@H]3[C@@](O)(C(=O)OC)[C@H](OC(C)=O)[C@]5(CC)C=CCN6CC[C@]43[C@@H]65)C2)C1 [Vinblastine, reference compound] | 100 | 95 | 95 | 87 | 67 | > 72 | – | – | – | – | – | – | – | – | EC50 ([7]; 72 h, read-out: HFFMonolayer EC50): 1.5 ± 0.5 nM; EC50 (HT-29 cells [8]; HT-29, read-out: HT-29 Soft Agar EC50): 7 ± 7 nM; EC50 (MCF-7 cells [9]; MCF7, read-out: MCF-7 Soft Agar EC50): 7 ± 5 nM; selectivity ratio (in vitro): 0.2
DSDVHVNATYVNVKCVAP [18 amino acid peptide substrate for Met kinase] | – | – | – | – | – | – | – | – | – | – | – | – | – | – | Km (Met kinase): 67 µM
RLVAYEGWV [nine amino acid peptide substrate for Tie-2] | – | – | – | – | – | – | – | – | – | – | – | – | – | – | Km (Tie-2): 119 µM
RPRAATF [peptide substrate for Akt from the literature] | – | – | – | – | – | – | – | – | – | – | – | – | – | – | specificity with respect to related MAP kinase and S6 kinase (Akt): exhibit specificity
RPRTSTF [peptide substrate for Akt from the literature] | – | – | – | – | – | – | – | – | – | – | – | – | – | – | specificity with respect to related MAP kinase and S6 kinase (Akt): exhibit specificity
